The values that follow come from patent publication US20230002408A1, “HETEROARYLDIHYDROPYRIMIDINE DERIVATIVES AND METHODS OF TREATING HEPATITIS B INFECTIONS” (JANSSEN PHARMACEUTICA NV, priority 2019, published 2023).

Data set [1] relates to HBV. Description: Anti-viral assay in HepG2.2.15 cells: HBV DNA in culture medium by qPCR. The class given is cell-based. The note with it: HepG2.2.15 cells, 6 days treatment, HBV DNA in culture medium by real-time PCR; read-out: EC50. Here is the method: (§1) HepG2.2.15 (the HepG2.2.15 cell line can be produced by transfection of the HepG2 cell line as described in Sells, Chen, and Acs 1987 (Proc. Natl. Acad. Sci. USA 84: 1005-1009), and the HepG2 cell line is available from ATCC® under number HB-8065™).
(§2) HepG2.2.15 cells were plated into 96-well plate in 2% FBS culture medium at the density of 40,000 cells/well and 5,000 cells/well for HBV inhibitory activity and cytotoxicity determination, respectively. After incubation at 37° C., 5% CO2 overnight, cells were treated with medium containing compounds for 6 days with medium and compounds refreshed after 3 days of treatment. Each compound was tested in a 1:3 serial dilutions at 8 different concentrations in triplicate. The highest concentration of the compounds was 10 uM or 1 uM for anti-HBV activity assay and 100 uM for cytotoxicity determination. Cell viability was determined by CCK-8 assay. After 6 days of compounds treatment, 20 μl CCK-8 reagents were added to each well of cytotoxicity assay plates. Cell plates were incubated at 37° C., 5% CO2 for 2.5 h. The absorbance at 450 nm wavelength and the absorbance at 630 nm wavelength as reference was measured.
The change of HBV DNA level induced by the compounds was assessed by quantitative real-time polymerase chain reaction (qPCR). Briefly, the HBV DNA in the culture medium was extracted using QlAamp 96 DNA Blood Kit according to the manual and then quantified by real-time PCR assay using the primers and probe in the table 1 below.
(§3) EC50 and CC50 values are calculated by the GRAPHPAD PRISM software.
On the technique in general: Real-time PCR tracks product formation cycle by cycle.

The subject of data set [2] is HepG2.2.15 cells. Description: Cytotoxicity determination in HepG2.2.15 cells (CCK-8 cell viability). The class given is cell-based. The following applies: 6 days treatment, CCK-8, highest concentration 100 uM. Here is the method: as §1, §2, §3

For the molecule `CCOC(=O)C1=C(CN2CCO[C@H]3CN(CC(C)(C)C(=O)O)C(=O)[C@H]32)NC(c2nccs2)=N[C@H]1c1ccc(F)cc1Cl` (relative stereo) [Compound I-20A, 3-((4aS*,7aS*)-4-4(R*)-6-(2-chloro-4-fluorophenyl)-5-(ethoxycarbonyl)-2-(thiazol-2-yl)-3,6-dihydropyrimidin-4-yl)methyl)-5-oxohexahydropyrrolo[3,4-b][1,4]oxazin-6(2H)-yl)-2,2-dimethylpropanoic acid], the EC50 (usually the concentration at which the effect is half-maximal) in data set [1] was 1 nM. Besides, the cytotoxic concentration (CC50) (as a rule, the concentration giving 50% cytotoxicity) in data set [2] was determined as 55 µM.
